# Laboratory results published in patent US20250230171A1 (MOMA Therapeutics, Inc., priority 2023, published 2025).
# Molecular target: biotinylated Avi-POLθ[2-894] (Homo sapiens (Human), UniProt O75417)
# Assay: POLθ ATPase assay (ADP-Glo)
# Conditions: n=2; read-out: Biochemical ATPase ADPGlo IC50
# Chain of biotinylated Avi-POLθ[2-894] (O75417 2-894): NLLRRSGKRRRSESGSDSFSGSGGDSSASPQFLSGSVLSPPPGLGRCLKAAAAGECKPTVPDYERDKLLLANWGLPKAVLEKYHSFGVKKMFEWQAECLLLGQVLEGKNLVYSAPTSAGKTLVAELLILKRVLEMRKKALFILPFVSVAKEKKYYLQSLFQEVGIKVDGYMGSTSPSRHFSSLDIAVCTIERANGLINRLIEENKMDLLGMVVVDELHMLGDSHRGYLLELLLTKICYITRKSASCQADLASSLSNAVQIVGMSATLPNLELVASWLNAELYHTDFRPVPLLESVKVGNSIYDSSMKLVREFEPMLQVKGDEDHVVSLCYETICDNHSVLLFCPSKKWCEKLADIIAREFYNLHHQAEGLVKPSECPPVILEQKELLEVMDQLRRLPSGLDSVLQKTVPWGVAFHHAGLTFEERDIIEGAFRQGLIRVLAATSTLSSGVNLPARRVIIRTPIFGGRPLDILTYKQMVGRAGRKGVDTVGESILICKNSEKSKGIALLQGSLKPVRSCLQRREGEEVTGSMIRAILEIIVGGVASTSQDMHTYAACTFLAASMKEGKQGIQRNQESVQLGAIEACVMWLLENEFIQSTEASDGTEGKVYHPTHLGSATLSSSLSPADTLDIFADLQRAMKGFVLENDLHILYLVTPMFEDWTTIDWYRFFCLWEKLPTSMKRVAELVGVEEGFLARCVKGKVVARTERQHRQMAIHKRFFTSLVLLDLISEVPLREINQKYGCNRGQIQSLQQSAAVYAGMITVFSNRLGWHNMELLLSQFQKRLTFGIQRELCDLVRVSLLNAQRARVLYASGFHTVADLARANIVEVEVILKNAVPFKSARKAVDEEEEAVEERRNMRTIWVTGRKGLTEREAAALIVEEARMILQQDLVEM
row,Structure (SMILES),IC50 [nM]
1,"COc1cnc(Cl)cc1-c1cc(C)ncc1C(=O)Nc1nc2c(s1)CN(C(=O)c1ncon1)C2 [Example 60, N-(5-(1,2,4-oxadiazole-3-carbonyl)-5,6-dihydro-4H-pyrrolo[3,4-d]thiazol-2-yl)-2′-chloro-5′-methoxy-6-methyl-[4,4′-bipyridine]-3-carboxamide]",1 to 15
2,"CCn1cc(C(=O)N2Cc3nc(NC(=O)c4cnc(C)cc4-c4cc(Cl)ncc4OC)sc3C2)cn1 [Example 62, 2′-chloro-N-(5-(1-ethyl-1H-pyrazole-4-carbonyl)-5,6-dihydro-4H-pyrrolo[3,4-d]thiazol-2-yl)-5′-methoxy-6-methyl-[4,4′-bipyridine]-3-carboxamide]",15 to 50
3,"COc1cnc(Cl)cc1-c1cc(C)ncc1C(=O)Nc1nc2c(s1)CN(C(=O)c1ncccc1O)C2 [Example 71, 2′-chloro-N-(5-(3-hydroxypicolinoyl)-5,6-dihydro-4H-pyrrolo[3,4-d]thiazol-2-yl)-5′-methoxy-6-methyl-[4,4′-bipyridine]-3-carboxamide]",1 to 15
4,"COc1cnc(Cl)cc1-c1cc(C)ncc1C(=O)Nc1nc2c(s1)CN(C(=O)c1cccc(OC(F)F)n1)C2 [Example 72, 2′-chloro-N-(5-(6-(difluoromethoxy)picolinoyl)-5,6-dihydro-4H-pyrrolo[3,4-d]thiazol-2-yl)-5′-methoxy-6-methyl-[4,4′-bipyridine]-3-carboxamide]",1 to 15
5,"COc1cnc(Cl)cc1-c1cc(C)ncc1C(=O)Nc1nc2c(s1)CN(C(=O)c1cnn(C3CC3)c1)C2 [Example 80, 2′-chloro-N-(5-(1-cyclopropyl-1H-pyrazole-4-carbonyl)-5,6-dihydro-4H-pyrrolo[3,4-d]thiazol-2-yl)-5′-methoxy-6-methyl-[4,4′-bipyridine]-3-carboxamide]",1 to 15
6,"COc1cnc(Cl)cc1-c1cc(C)ncc1C(=O)Nc1nc2c(s1)CN(C(=O)c1cnn(CC(F)(F)F)c1)C2 [Example 83, 2′-chloro-5′-methoxy-6-methyl-N-(5-(1-(2,2,2-trifluoroethyl)-1H-pyrazole-4-carbonyl)-5,6-dihydro-4H-pyrrolo[3,4-d]thiazol-2-yl)-[4,4′-bipyridine]-3-carboxamide]",15 to 50
7,"COc1cnc(Cl)cc1-c1cc(C)ncc1C(=O)Nc1nc2c(s1)CN(C(=O)c1cnn(C(C)C)c1)C2 [Example 85, 2′-chloro-N-(5-(1-isopropyl-1H-pyrazole-4-carbonyl)-5,6-dihydro-4H-pyrrolo[3,4-d]thiazol-2-yl)-5′-methoxy-6-methyl-[4,4′-bipyridine]-3-carboxamide]",1 to 15
8,"COc1cnc(Cl)cc1-c1cc(C)ncc1C(=O)Nc1nc2c(s1)CN(C(=O)[C@H]1CC[C@H](O)CC1)C2 [Example 96, 2′-chloro-N-(5-((1r,4r)-4-hydroxycyclohexane-1-carbonyl)-5,6-dihydro-4H-pyrrolo[3,4-d]thiazol-2-yl)-5′-methoxy-6-methyl-[4,4′-bipyridine]-3-carboxamide]",1 to 15
9,"COc1cn2cncc2cc1-c1cc(C)ncc1C(=O)Nc1nc2c(s1)CN(C(=O)[C@H]1C[C@@H](OC(F)(F)F)C1)C2 [Example 97, 4-(6-methoxyimidazo[1,5-a]pyridin-7-yl)-6-methyl-N-(5-((1s,3s)-3-(trifluoromethoxy)cyclobutane-1-carbonyl)-5,6-dihydro-4H-pyrrolo[3,4-d]thiazol-2-yl)nicotinamide]",1 to 15
10,"COc1cnccc1-c1cc(C)ncc1C(=O)Nc1nc2c(s1)CN(C(=O)c1ccccn1)C2 [Example 98, 3′-methoxy-6-methyl-N-(5-picolinoyl-5,6-dihydro-4H-pyrrolo[3,4-d]thiazol-2-yl)-[4,4′-bipyridine]-3-carboxamide]",150 to 900
11,"COc1cnc(Cl)cc1-c1cc(C)ncc1C(=O)Nc1nc2c(s1)CC(N[C@H]1C[C@@H](O)C1)CC2 (stereo partly drawn) [Example 99, 2′-chloro-N-(6-(((1s,3s)-3-hydroxycyclobutyl)amino)-4,5,6,7-tetrahydrobenzo[d]thiazol-2-yl)-5′-methoxy-6-methyl-[4,4′-bipyridine]-3-carboxamide]",≥ 900
12,"COc1cnc(Cl)cc1-c1cc(C)ncc1C(=O)Nc1nc2c(s1)CN(C(=O)c1ncccn1)C2 [Example 100, 2′-chloro-5′-methoxy-6-methyl-N-(5-(pyrimidine-2-carbonyl)-5,6-dihydro-4H-pyrrolo[3,4-d]thiazol-2-yl)-[4,4′-bipyridine]-3-carboxamide]",1 to 15
13,"COc1cnc(Cl)cc1-c1cc(C)ncc1C(=O)Nc1nc2c(s1)CN(C(=O)[C@@H]1C[C@H]1CO)C2 [Example 102, 2′-chloro-N-(5-((1R,2R)-2-(hydroxymethyl)cyclopropane-1-carbonyl)-5,6-dihydro-4H-pyrrolo[3,4-d]thiazol-2-yl)-5′-methoxy-6-methyl-[4,4′-bipyridine]-3-carboxamide]",1 to 15
14,"COc1cnc(Cl)cc1-c1cc(C)ncc1C(=O)Nc1nc2c(s1)CN(C(=O)[C@H]1C[C@](F)(CO)C1)C2 [Example 105, 2′-chloro-N-(5-((1s,3s)-3-fluoro-3-(hydroxymethyl)cyclobutane-1-carbonyl)-5,6-dihydro-4H-pyrrolo[3,4-d]thiazol-2-yl)-5′-methoxy-6-methyl-[4,4′-bipyridine]-3-carboxamide]",15 to 50
15,"COc1cnc(Cl)cc1-c1cc(C)ncc1C(=O)Nc1nc2c(s1)CN(C(=O)[C@H]1C[C@@](F)(CO)C1)C2 [Example 106, 2′-chloro-N-(5-((1r,3r)-3-fluoro-3-(hydroxymethyl)cyclobutane-1-carbonyl)-5,6-dihydro-4H-pyrrolo[3,4-d]thiazol-2-yl)-5′-methoxy-6-methyl-[4,4′-bipyridine]-3-carboxamide]",1 to 15
16,"COc1cnc(Cl)cc1-c1cc(C)ncc1C(=O)Nc1nc2c(s1)CN(C(=O)[C@@H]1C[C@@H]1CO)C2 [Example 107, 2′-chloro-N-(5-((1R,2S)-2-(hydroxymethyl)cyclopropane-1-carbonyl)-5,6-dihydro-4H-pyrrolo[3,4-d]thiazol-2-yl)-5′-methoxy-6-methyl-[4,4′-bipyridine]-3-carboxamide]",50 to 150

# Now from value to compound:
row,IC50 [nM],Structure (SMILES)
1,1 to 15,"COc1cnc(Cl)cc1-c1cc(C)ncc1C(=O)Nc1nc2c(s1)CN(C(=O)c1c(C(F)F)nn(C)c1F)C2 [Example 59, 2′-chloro-N-(5-(3-(difluoromethyl)-5-fluoro-1-methyl-1H-pyrazole-4-carbonyl)-5,6-dihydro-4H-pyrrolo[3,4-d]thiazol-2-yl)-5′-methoxy-6-methyl-[4,4′-bipyridine]-3-carboxamide]"
2,1 to 15,"COc1cnc(Cl)cc1-c1cc(C)ncc1C(=O)Nc1nc2c(s1)CN(C(=O)c1cn(C)nc1C(F)(F)F)C2 [Example 61, 2′-chloro-5′-methoxy-6-methyl-N-(5-(1-methyl-3-(trifluoromethyl)-1H-pyrazole-4-carbonyl)-5,6-dihydro-4H-pyrrolo[3,4-d]thiazol-2-yl)-[4,4′-bipyridine]-3-carboxamide]"
3,1 to 15,"COc1cnc(Cl)cc1-c1cc(C)ncc1C(=O)Nc1nc2c(s1)CN(C(=O)c1nn(C)cc1C)C2 [Example 65, 2′-chloro-N-(5-(1,4-dimethyl-1H-pyrazole-3-carbonyl)-5,6-dihydro-4H-pyrrolo[3,4-d]thiazol-2-yl)-5′-methoxy-6-methyl-[4,4′-bipyridine]-3-carboxamide]"
4,1 to 15,"CCn1ccc(C(=O)N2Cc3nc(NC(=O)c4cnc(C)cc4-c4cc(Cl)ncc4OC)sc3C2)n1 [Example 69, 2′-chloro-N-(5-(1-ethyl-1H-pyrazole-3-carbonyl)-5,6-dihydro-4H-pyrrolo[3,4-d]thiazol-2-yl)-5′-methoxy-6-methyl-[4,4′-bipyridine]-3-carboxamide]"
5,1 to 15,"COc1cnc(Cl)cc1-c1cc(C)ncc1C(=O)Nc1nc2c(s1)CN(C(=O)c1ccnn1C(C)C)C2 [Example 75, 2′-chloro-N-(5-(1-isopropyl-1H-pyrazole-5-carbonyl)-5,6-dihydro-4H-pyrrolo[3,4-d]thiazol-2-yl)-5′-methoxy-6-methyl-[4,4′-bipyridine]-3-carboxamide]"
6,1 to 15,"COc1cnc(Cl)cc1-c1cc(C)ncc1C(=O)Nc1nc2c(s1)CN(C(=O)c1c(C)nn(C)c1C)C2 [Example 76, 2′-chloro-5′-methoxy-6-methyl-N-(5-(1,3,5-trimethyl-1H-pyrazole-4-carbonyl)-5,6-dihydro-4H-pyrrolo[3,4-d]thiazol-2-yl)-[4,4′-bipyridine]-3-carboxamide]"
7,15 to 50,"COc1cnc(Cl)cc1-c1cc(C)ncc1C(=O)Nc1nc2c(s1)CN(C(=O)c1ncn(C(C)C)n1)C2 [Example 77, 2′-chloro-N-(5-(1-isopropyl-1H-1,2,4-triazole-3-carbonyl)-5,6-dihydro-4H-pyrrolo[3,4-d]thiazol-2-yl)-5′-methoxy-6-methyl-[4,4′-bipyridine]-3-carboxamide]"
8,15 to 50,"COc1cnc(Cl)cc1-c1cc(C)ncc1C(=O)Nc1nc2c(s1)CN(C(=O)c1cnn(C)c1C)C2 [Example 87, 2′-chloro-N-(5-(1,5-dimethyl-1H-pyrazole-4-carbonyl)-5,6-dihydro-4H-pyrrolo[3,4-d]thiazol-2-yl)-5′-methoxy-6-methyl-[4,4′-bipyridine]-3-carboxamide]"
9,1 to 15,"COc1cnc(Cl)cc1-c1cc(C)ncc1C(=O)Nc1nc2c(s1)CN(C(=O)c1cnn(C)c1C(F)F)C2 [Example 91, 2′-chloro-N-(5-(5-(difluoromethyl)-1-methyl-1H-pyrazole-4-carbonyl)-5,6-dihydro-4H-pyrrolo[3,4-d]thiazol-2-yl)-5′-methoxy-6-methyl-[4,4′-bipyridine]-3-carboxamide]"
10,15 to 50,"COc1cnc(Cl)cc1-c1cc(C)ncc1C(=O)Nc1nc2c(s1)CN(C(=O)c1cc(O)n(C)n1)C2 [Example 92, 2′-chloro-N-(5-(5-hydroxy-1-methyl-1H-pyrazole-3-carbonyl)-5,6-dihydro-4H-pyrrolo[3,4-d]thiazol-2-yl)-5′-methoxy-6-methyl-[4,4′-bipyridine]-3-carboxamide]"
11,15 to 50,"COc1cnc(Cl)cc1-c1cc(C)ncc1C(=O)Nc1nc2c(s1)CN(C(=O)[C@@H]1C[C@@H]1C(F)F)C2 [Example 104, 2′-chloro-N-(5-((1R,2S)-2-(difluoromethyl)cyclopropane-1-carbonyl)-5,6-dihydro-4H-pyrrolo[3,4-d]thiazol-2-yl)-5′-methoxy-6-methyl-[4,4′-bipyridine]-3-carboxamide]"
